Where a name gives a salt, the structure may show the parent alone.
Key:
h5-HT4b = molecular target: T1, h5-HT4b (Homo sapiens, UniProt Q13639); test: 5HT4 antagonism: [3H]GR113808 binding to membranes of h5-HT4b-HEK 293 clone 9 cells; conditions: displacement of [3H]GR113808 0.1 nM, h5-HT4b-HEK 293 membranes, 30 min at 25° C.; read-out: pIC50 (5HT4 antagonistic data) (converted)
T1 construct: expressed in transfected cells; host or cells: HEK 293 (clone 9), membrane preparation
Protocol: h5-HT4b-HEK 293 clone 9 cells were cultured in 150 mm Petri dishes and washed twice with cold PBS. The cells were then scraped from the plates and suspended in 50 mM Tris-HCl buffer, pH 7.4 and harvested by centrifugation at 23,500 rpm for 10 minutes. The pellet was resuspended in 5 mM Tris-HCl, pH 7.4 and homogenized with an Ultra Turrax homogenizer. The membranes were collected by centrifugation at 30,000 rpm for 20 min, resuspended in 50 mM Tris-HCl pH 7.4 and stored at −80° C. For the experiment, assay mixtures (0.5 ml) contained 50 μl of the tritiated ligand (5-HT4 antagonist [^3H]GR113808 0.1 nM) and 0.4 ml membrane preparation (15 μg protein/ml). 50 μl of 10% DMSO was added for total binding. 50 μl of 1 μM of (+)-trans-(1-butyl-3-hydroxy-4-piperidinyl)methyl 8-amino-7-chloro-2,3-dihydro-1,4-benzodioxin-5-carboxylate (a proprietary 5HT4 agonist of Janssen Pharmaceutica) was added for determination of non-specific binding.
The [^3H]GR113808 assay buffer was 50 mM HEPES-NaOH, pH 7.4. The mixtures were incubated for 30 min at 25° C. The incubation was terminated by filtration over a Unifilter 96 GF/B presoaked in 0.1% polyethylenimine, followed by six washing steps with 50 mM HEPES-NaOH, pH 7.4.

[1] = Metabolic stability in liver microsomes, LC-MS analysis; format: in vitro ADME; conditions: compound 5 μM, microsomes 1 mg/ml, NADPH-generating system, 60 minutes at 37 degrees Celsius
Protocol: Sub-cellular tissue preparations were made according to Gorrod et al. (Xenobiotica 5: 453-462, 1975) by centrifugal separation after mechanical homogenization of tissue. Liver tissue was rinsed in ice-cold 0.1 M Tris-HCl (pH 7.4) buffer to wash excess blood. Tissue was then blotted dry, weighed and chopped coarsely using surgical scissors. The tissue pieces were homogenized in 3 volumes of ice-cold 0.1 M phosphate buffer (pH 7.4).
Tissue homogenates were centrifuged at 9000×g for 20 minutes at 4° C. The resulting supernatant was stored at −80° C. and is designated ‘S9’.
The S9 fraction can be further centrifuged at 100.000×g for 60 minutes (4° C.). The resulting supernatant was carefully aspirated, aliquoted and designated ‘cytosol’. The pellet was re-suspended in 0.1 M phosphate buffer (pH 7.4) in a final volume of 1 ml per 0.5 g original tissue weight and designated ‘microsomes’.
All sub-cellular fractions were aliquoted, immediately frozen in liquid nitrogen and stored at −80° C. until use.
For the samples to be tested, the incubation mixture contained PBS (0.1M), compound (5 μM), microsomes (1 mg/ml) and a NADPH-generating system (0.8 mM glucose-6-phosphate, 0.8 mM magnesium chloride and 0.8 Units of glucose-6-phosphate dehydrogenase). Control samples contained the same material but the microsomes were replaced by heat inactivated (10 minutes at 95 degrees Celsius) microsomes. Recovery of the compounds in the control samples was always 100%.
The mixtures were preincubated for 5 minutes at 37 degrees Celsius. The reaction was started at time point zero (t=0) by addition of 0.8 mM NADP and the samples were incubated for 60 minutes (t=60). The reaction was terminated by the addition of 2 volumes of DMSO. Then the samples were centrifuged for 10 minutes at 900×g and the supernatants were stored at room temperature for no longer as 24 hours before analysis. All incubations were performed in duplo. Analysis of the supernatants was performed with LC-MS analysis. Elution of the samples was performed on a Xterra MS C18 (50×4.6 mm, 5 μm, Waters, US). An Alliance 2790 (Supplier: Waters, US) HPLC system was used. Elution was with buffer A (25 mM ammoniumacetate (pH 5.2) in H2O/acetonitrile (95/5)), solvent B being acetonitrile and solvent C methanol at a flow rate of 2.4 ml/min. The gradient employed was increasing the organic phase concentration from 0% over 50% B and 50% C in 5 min up to 100% B in 1 minute in a linear fashion and organic phase concentration was kept stationary for an additional 1.5 minutes. Total injection volume of the samples was 25 μl.
A Quatro triple quadrupole mass spectrometer fitted with and ESP source was used as detector. The source and the desolvation temperature were set at 120 and 350° C. respectively and nitrogen was used as nebuliser and drying gas. Data were acquired in positive scan mode (single ion reaction). Cone voltage was set at 10 V and the dwell time was 1 second.
Metabolic stability was expressed as % metabolism of the compound after 60 minutes (equation given as example) of incubation in the presence of active microsomes (E(act))

T1 sequence (Q13639 whole entry): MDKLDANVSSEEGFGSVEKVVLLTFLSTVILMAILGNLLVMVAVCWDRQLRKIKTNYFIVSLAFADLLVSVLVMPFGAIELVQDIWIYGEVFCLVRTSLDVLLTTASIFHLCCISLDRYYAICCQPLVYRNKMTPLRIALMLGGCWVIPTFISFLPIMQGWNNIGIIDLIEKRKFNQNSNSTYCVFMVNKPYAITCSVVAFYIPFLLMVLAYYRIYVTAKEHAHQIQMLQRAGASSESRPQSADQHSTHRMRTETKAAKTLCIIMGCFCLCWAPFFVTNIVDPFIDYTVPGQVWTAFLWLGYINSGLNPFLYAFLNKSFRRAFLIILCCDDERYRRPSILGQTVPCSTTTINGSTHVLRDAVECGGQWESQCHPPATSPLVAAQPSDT

Row | melting point [°C] | IC50 (h5-HT4b) [nM] | % metabolized (% metabolised compound after 60 minutes) [1] [%] | SMILES
1 | 256 | – | – | O=C(O)c1ccc(OCCCN2CCC(CNC(=O)c3cc(Cl)c(Cl)c4c3OCCCO4)C(O)C2)cc1 (stereo not shown) (as salt: HCl) [compound 16]
2 | > 120 | – | – | Cc1ccc(C(=O)NC[C@@H]2CCN(CCOc3ccc(C(=O)O)cc3)C[C@H]2O)c2c1OCCCO2 (hydrate or solvate) [compound 8]
3 | 268 | – | – | O=C(O)c1ccc(OCCCN2CC[C@@H](CNC(=O)c3cc(Cl)c(Br)c4c3OCCCO4)[C@H](O)C2)cc1 (relative stereo) (as salt: HCl) (hydrate or solvate) [compound 17]
4 | 148 | 79.4 | 14 | O=C(O)c1ccccc1OCCCN1CC[C@@H](CNC(=O)c2cc(Cl)cc3c2OCCCO3)[C@H](O)C1 (relative stereo) [compound 7]
5 | 118 | 20.9 | – | Cc1cc2c(c(C(=O)NC[C@@H]3CCN(CCCOc4ccc(C(=O)O)cc4)C[C@H]3O)c1)OCCCO2 (relative stereo) [compound 13]
6 | – | 5.62 | 6 | O=C(O)c1ccc(OCCCN2CC[C@@H](CNC(=O)c3cc(Cl)c(Br)c4c3OCCCO4)[C@H](O)C2)cc1 (relative stereo) [compound 17]
7 | 200 | 7.76 | – | CO[C@@H]1CN(CCCOc2ccc(C(=O)O)cc2)CC[C@H]1CNC(=O)c1cc(Cl)c(Cl)c2c1OCCCO2 (relative stereo) [compound 20]
8 | 114 | – | – | Cc1cc2c(c(C(=O)NC[C@@H]3CCN(CCCOc4ccccc4C(=O)O)C[C@H]3O)c1)OCCCO2 [Co. No. 1]
9 | – | 120 | – | Cc1cc2c(c(C(=O)NC[C@@H]3CCN(CCCOc4ccccc4C(=O)O)C[C@H]3O)c1)OCCCO2 [compound 1]
10 | 188 | 9.55 | 6 | Cc1cc2c(c(C(=O)NC[C@@H]3CCN(CCCCOc4ccc(C(=O)O)cc4)C[C@H]3O)c1)OCCCO2 [compound 2]
11 | 170 | 4.9 | 16 | Cc1ccc(C(=O)NC[C@@H]2CCN(CCCCOc3ccc(C(=O)O)cc3)C[C@H]2O)c2c1OCCCO2 [compound 3]
12 | 220 to 225 | 14.5 | – | O=C(O)c1ccc(OCCN2CC[C@@H](CNC(=O)c3cc(Cl)cc4c3OCCCO4)[C@H](O)C2)cc1 [compound 4]
13 | 190 | 5.13 | 15 | O=C(O)c1ccc(OCCCCN2CC[C@@H](CNC(=O)c3cc(Cl)cc4c3OCCCO4)[C@H](O)C2)cc1 [compound 5]
14 | 175 | 63.1 | – | Cc1cc2c(c(C(=O)NC[C@@H]3CCN(CCOc4ccc(C(=O)O)cc4)C[C@H]3O)c1)OCCCO2 [compound 6]
15 | – | 42.7 | – | Cc1ccc(C(=O)NC[C@@H]2CCN(CCOc3ccc(C(=O)O)cc3)C[C@H]2O)c2c1OCCCO2 [compound 8]
16 | 122 | 11.2 | 7.5 | O=C(O)c1ccc(OCCCN2CCC(CNC(=O)c3cc(Cl)cc4c3OCCCO4)C(O)C2)cc1 (stereo not shown) [compound 9]
17 | 120 | 8.51 | 1 | Cc1ccc(C(=O)NC[C@@H]2CCN(CCCOc3cccc(C(=O)O)c3)C[C@H]2O)c2c1OCCCO2 [compound 11]
18 | 122 | 23.4 | 0 | Cc1cc2c(c(C(=O)NCC3CCN(CCCOc4cccc(C(=O)O)c4)CC3O)c1)OCCCO2 (stereo not shown) [compound 12]
19 | 155 | 8.71 | 0 | Cc1ccc(C(=O)NC[C@@H]2CCN(CCCOc3ccc(C(=O)O)cc3)C[C@H]2O)c2c1OCCCO2 [compound 14]
20 | – | 7.59 | 3 | O=C(O)c1ccc(OCCCN2CCC(CNC(=O)c3cc(Cl)c(Cl)c4c3OCCCO4)C(O)C2)cc1 (stereo not shown) [compound 16]
21 | 179.4 to 189.2 | 66.1 | – | COc1ccc(C(=O)NCC2CCN(CCCOc3ccc(C(=O)O)cc3)CC2OC)c2c1OCCCO2 (stereo not shown) [compound 21]
22 | – | 13.5 | 6 | COC1CN(CCCOc2ccc(C(=O)O)cc2)CCC1CNC(=O)c1cc(C)cc2c1OCCCO2 (stereo not shown) [compound 22]

From patent US7498347B2, “Hydroxycarbonylphenyl substituted 4-(aminomethyl)-piperidine benzamides as 5HT4 antagonists” (Janssen Pharmaceutica, N.V., priority 2004, dated 2009)
